Experimental data as given in patent publication US12642795B2, “MRGPRX2 antagonist for the treatment of pseudo allergic reactions” (The University of Hong Kong, priority 2021, dated 2026).

Tests used:
C57/BL/6N mice [1] = experiment: In-vivo systemic anaphylaxis mice model (C48/80 induced); set-up: species or system mouse; settings: 5 mg/kg intraperitoneally, C48/80 8 mg/kg intraperitoneally
Protocol: Animals (C57/BL/6N aged 6-8 weeks old, n=6-8/group) were transported to the procedure area the day before injections to minimize stress. The antagonists (GE0117, GE1109, or GE1111) or vehicle was injected intraperitoneally, and mice were kept in the cage for 30 minutes. After 30 minutes of saline (negative control), 8 mg/kg of C48/80 was injected intraperitoneally. The volume of intraperitoneal injection was 10 ml/kg body weight as per AAALAC guidelines. The injection site was swabbed with cotton soaked in 70% alcohol, and the mouse was placed in a separate cage as one mouse per cage. Body core temperature was measured before (basal) and after the injections with an IR non-contact thermometer for one hour. Also, mice were monitored for anaphylaxis symptoms/severity and scored from 0-5 for 1 h or until death following C48/80 injection, whichever was first. Briefly, the scoring system was followed as 0, no symptoms; 1, scratching and rubbing around the nose and head; 2, puffiness around the eyes and mouth, diarrhea, pilar erecti, reduced activity, and/or decreased activity with an increased respiratory rate; 3, wheezing, labored respiration, and cyanosis around the mouth and the tail; 4, no activity after prodding or tremor and convulsion; 5, death. The body core temperature and anaphylaxis score were plotted using Graph Pad Prism.

Human LAD-2 MCs = experiment: Intracellular Ca2+ flux assay (Fluo-4 NW); type: cell-based; settings: LAD2 MCs; for efficacy in Ca2+ flux reduction at 12.5 μM, 25 μM and 50 μM: ****P<0.0001 vs C48/80; for reduction of C48/80 induced Ca2+ flux: C48/80 EC90 concentration
Protocol: The intracellular Ca^2+ flux was measured in human LAD-2 MCs by using the Fluo-4 NW calcium assay kit and the protocol according to the manufacturer (Molecular Probe, Invitrogen, USA). Briefly, LAD-2 cells were plated in a 96-well black well plate (SPL Life Sciences) at a density of 1×10^5 cells/well/40 μL in assay buffer and incubated for 1 h at 37° C. incubators. After 1 h, 40 μL of the 2× dye loading solution and antagonist or buffer was added to the cells (10 μL of 10× stock). […] After one hour of incubation, a graded concentration of agonist or buffer was added to the cells (10 μL of 10× stock). The fluorescence was measured at an excitation wavelength of 494 nm and an emission wavelength of 516 nm using Victor 4× plate reader (PerkinElmer) for 150 seconds. The ΔF was calculated by […] and plotted by using Graph Pad Prism.

C57/BL/6N mice [2] = experiment: In-vivo local anaphylaxis/pseudo allergic mice model (C48/80 induced); set-up: species or system mouse; settings: 5 mg/kg intraperitoneally, vs C48/80 mice; for increase in paw thickness: 15 min after C48/80 (30 μg/ml) in paw; for Evans blue dye extravasation: 15 min after C48/80 (30 μg/ml)
From the text: Young adult male mice (C57/BL/6N aged 6-8 weeks old, n=6/group) were used to measure the local anaphylaxis activity by measuring Evans blue tissue extravasation in paw and ear tissue. The animal experiments were approved by the Committee on the Use of Live Animals in Teaching and Research (CULATR) (Animal ethical approval number CULATR 5125-19). Mice were anesthetized via intraperitoneal injection of ketamine and xylazine, and paw thickness was measure using a Vernier caliper. The antagonists (GE0117, GE1109, and GE1111) were injected at a dose of 5 mg/kg body weight via intraperitoneal injection followed by a tail vein injection of 50 μL 12.5% Evans blue in saline (irrespective of the bodyweight). After thirty minutes, C48/80 (10 μL of 30 μg/ml) was injected into one paw and ear, while saline was injected into the other paw and ear as a negative control. After fifteen minutes, the paw and ear tissue were photographed, and the paw thicknesses were measured again to calculate % increase in paw thickness. Mice were euthanized by cervical dislocation under anesthesia, and the collected paw and ear tissues were dried at 50° C. for 24 hours and weighed separately. Evans blue was extracted with formamide (500 μL/tissue) by incubating at 50° C. for 24 h. The supernatant was aliquoted into 96-well plates (200 μL/well, duplicate), and OD was measure at 595 nm using a Victor 4× plate reader (PerkinElmer). The paw edema/inflammation was measured as % increase in paw thickness=

Human LAD-2 mast cells = experiment: β-Hexosaminidase MCs degranulation assay; type: cell-based; settings: LAD2, LAD-2 MCs, followed by EC90 concentration (10 μM) of C48/80
Protocol: Human LAD-2 mast cells were seeded at 2×10^4 cells/well/80 μL in a 96-well plate. A 10× stock of antagonist were prepared in HEPES buffer (HEPES (10 mM), NaCl (137 mM), KCl (2.7 mM), Na2HPO4·7H2O (0.4 mM), glucose (5.6 mM), CaCl2·2H2O (1.8 mM), MgSO4·7H2O (1.3 mM), bovine serum albumin (0.04%), pH 7.4). […] The plate was spun at 450×g for 5 minutes at room temperature, and 50 μL of supernatant was aliquoted to a new 96 well plate. The cells were lysed with 100 μL of 0.1% Triton X-100, and 50 μL of lysate was aliquoted to another 96 well plates. A 1.3 mg/ml solution of the substrate PNAG (4-Nitrophenyl N-acetyl-β-D-glucosaminide) was prepared in 0.1 M citric acid/sodium citrate buffer (pH 4.5, 24.087 g/L Sodium Citrate dihydrate, and 3.471 g/L Citric Acid). 50 μL of PNAG was added to each well of supernatant and lysate, and cells were incubated for 90 min at 37° C. (without CO2). The reaction was stopped by adding 50 μL of 0.4 M Glycine buffer. The extent of yellow color was measured at 405 nm using Victor 4× plate reader (PerkinElmer), and percentage MCs degranulation (β-hexosaminidase release) was calculated by using the formula; % MCs degranulation: […]

human LAD2 MCs = experiment: Monocyte chemoattractant protein-1 (MCP-1) measurement by ELISA; type: cell-based; settings: 12.5 μM, 25 μM and 50 μM; compared to C48/80 control
Protocol: MCP-1 and PGD2 were measured from human LAD2 MCs via individual ELISA kits. Briefly, MCs were seeded at a density of 1.5×10^5 cells/80 μL/well in a 96 well plate in complete Stem-Pro 34 media. […] The cells were centrifuged to collect the supernatant and stored at −80° C. until analyzed. […] After 24 hours, cells were centrifuged to discard the media and lysed with 0.1M potassium phosphate via sonication. The supernatant of cell lysate was collected and stored at −80° C. until analyzed. MCP-1 (Abcam, Cambridge, UK) and PGD2 (Cayman Chemicals, MI, USA) were quantified by ELISA according to manufacturer instruction.

mice ear tissue MCs = experiment: Histological analysis of ear tissue (H&E, Toluidine blue; in-vivo MCs degranulation); set-up: species or system mouse; settings: 5 mg/kg intraperitoneally, vs C48/80 treated group
Protocol: The mice were anesthetized with ketamine/xylazine and were injected with antagonists (GE0117, GE1109, and GE1111) at a dose of 5 mg/kg body weight intraperitoneally. After 30 minutes, C48/80 (10 μL of 30 μg/ml) and saline (as negative control) were injected into the ear. Fifteen minutes later, the mice were sacrificed, and the injection site of the ear was excised, washed with PBS, and fixed with 10% buffered formalin for 24 h. After 24 hours, the ear tissue was dehydrated in a graded concentration of ethanol (30%, 50% & 70% ethanol every 24 hours) at 4° C. Further, the tissue was processed in an automated tissue processor (Leica ASP300) and embedded into paraffin using Embedding Centre (Leica EG1150). The paraffin-embedded tissue was sectioned at […] size using a fully automatic Microtome (Leica RM2265). The tissue sections were subjected to H&E staining using an automated slide Stainer (Leica ST5020) using standard staining protocol. After staining, the slides were dried under a fume hood and mounted with DPX. For the MCs detection, the sectioned ear tissue was subjected to Toluidine blue O staining according to the available online protocol (http://www.ihcworld.com/_protocols/special_stains/toluidine_blue.htm). Images were captured under 10× and 20× magnification using a Nikon Eclipse Ni-U, upright microscope, and Nikon DS-Ri2 microscopic camera (Nikon, Tokyo, Japan).

MRGPRX2 = target: T1, MRGPRX2 (Homo sapiens, UniProt Q96LB1); experiment: MRGPRX2 activation assay (PRESTO-Tango assay); type: cell-based; settings: MRGPRX2-Tango transfected HTLA cells, followed by EC90 concentration (10 μM) of C48/80
T1 construct: expressed in transfected cells; host or cells: HTLA cells
T1 sequence (Q96LB1 1-330): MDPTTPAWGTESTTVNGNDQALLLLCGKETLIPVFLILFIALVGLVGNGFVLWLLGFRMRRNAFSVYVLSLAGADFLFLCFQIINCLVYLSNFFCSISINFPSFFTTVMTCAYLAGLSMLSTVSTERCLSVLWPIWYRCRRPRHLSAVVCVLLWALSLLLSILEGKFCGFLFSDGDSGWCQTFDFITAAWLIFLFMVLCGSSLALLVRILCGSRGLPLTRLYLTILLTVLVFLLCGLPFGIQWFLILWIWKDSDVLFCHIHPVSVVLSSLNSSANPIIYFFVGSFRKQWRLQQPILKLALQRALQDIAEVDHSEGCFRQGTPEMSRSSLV
Protocol: On day 1 of the experiment, HTLA cells were seeded at 1×10^6 cells per 100 mm cell culture dish for transfection. On the following day (day 2), HTLA cells were transfected with Tango MRGPRX2 DNA using the Lipofectamine transfection reagent (Thermo Fischer Scientific). On day 3, Tango MRGPRX2 transfected cells were transferred into 96-well white clear-bottom cell culture plates at a density of 2×10^4 cells/well/80 μL (PerkinElmer Life Science).

| IC50 (Human LAD-2 mast cells) | IC50 (MRGPRX2) | SMILES | C48/80 induced body temperature change at 35 minutes (C57/BL/6N mice [1]) | C48/80 induced body temperature changes at 30 minutes (C57/BL/6N mice [1]) | efficacy in Ca2+ flux reduction at 12.5 μM, 25 μM and 50 μM (Human LAD-2 MCs) | reduction of C48/80 induced Ca2+ flux (Human LAD-2 MCs) | increase in paw thickness (C57/BL/6N mice [2]) | Evans blue dye extravasation (C57/BL/6N mice [2]) | inhibition of C48/80 induced MCP-1 release (human LAD2 MCs) | percentage of degranulated MCs in ear tissue (mice ear tissue MCs) | systemic anaphylaxis symptoms (score 0-5) (C57/BL/6N mice [1]; 1 h) |
| --- | --- | --- | --- | --- | --- | --- | --- | --- | --- | --- | --- |
| 9.87 µM | 7.14 µM | COC(=O)c1cc2cc(NC(N)=O)ccc2cc1-c1ccc2c3c(cccc13)C(=O)C=C2 [GE1109] | significantly reversed the body temperature change | reversed the C48/80 induced body temperature changes | higher efficacy at all three concentrations | significant concentration-dependent reduction | significant (*P<0.05) antagonizing activity | significant (*P<0.05) antagonizing activity | significant activity only at 25 μM, and 50 μM | reduces the MCs degranulation | – |
| 20.8 µM | 9.79 µM | COC(=O)c1ccc2cc(-c3cc4c5c(cccc5c3)C(=O)N(C)C4=O)c(NC(N)=O)cc2c1 [GE0117] | significantly reversed the body temperature change | – | higher efficacy at all three concentrations | significant concentration-dependent reduction | significantly (***P<0.001) attenuated | significantly (***P<0.001) attenuated | significantly inhibits the release of MCP-1 at all the tested concentrations | – | – |
| 23.4 µM | 8.93 µM | COC(=O)c1ccc2cc(-c3cc4c5c(c(O)ccc5c3)C(C)C(C=O)=C4)c(C(=O)OC)cc2c1 (stereo not drawn) [GE1110] | – | – | higher efficacy at all three concentrations | significant concentration-dependent reduction | – | – | – | – | – |
| 18.2 µM | 8.91 µM | COC(=O)c1ccc2cc(-c3cc4c5c(cccc5c3)C(=O)N(C)C4=O)c(C(=O)OC)cc2c1 [GE0118] | – | – | – | significant concentration-dependent reduction | – | – | – | – | – |
| 4.7 µM | 9.42 µM | COC(=O)c1cc2cc(NC(N)=O)ccc2cc1-c1cc2c3c(c(O)ccc3c1)C(C)C(C=O)=C2 (stereo not drawn) [GE1111] | significantly reversed the body temperature change | reversed the C48/80 induced body temperature changes | higher efficacy at all three concentrations | significant concentration-dependent reduction | significantly (***P<0.001) attenuated | significantly (***P<0.001) attenuated | significantly inhibits the release of MCP-1 at all the tested concentrations | reduces the MCs degranulation | rehabilitated the compound 48/80 induced hypothermia and severity of anaphylaxis symptoms |
| 25.5 µM | 20.1 µM | COC(=O)c1cc2cc(NC(N)=O)ccc2cc1-c1cc2c3c(cccc3c1)C(=O)N(C)C2=O [GE0119] | – | – | – | significant concentration-dependent reduction | – | – | – | – | – |

| SMILES | IC50 (Human LAD-2 mast cells) | IC50 (MRGPRX2) | C48/80 induced body temperature change at 35 minutes (C57/BL/6N mice [1]) | C48/80 induced body temperature changes at 30 minutes (C57/BL/6N mice [1]) | efficacy in Ca2+ flux reduction at 12.5 μM, 25 μM and 50 μM (Human LAD-2 MCs) | reduction of C48/80 induced Ca2+ flux (Human LAD-2 MCs) | increase in paw thickness (C57/BL/6N mice [2]) | Evans blue dye extravasation (C57/BL/6N mice [2]) | inhibition of C48/80 induced MCP-1 release (human LAD2 MCs) | percentage of degranulated MCs in ear tissue (mice ear tissue MCs) | systemic anaphylaxis symptoms (score 0-5) (C57/BL/6N mice [1]; 1 h) |
| --- | --- | --- | --- | --- | --- | --- | --- | --- | --- | --- | --- |
| O=c1c(-c2ccc(O)cc2)coc2cc(O)cc(O)c12 [genistein, reference compound] | 30.3 µM | 31.7 µM | significantly reversed the body temperature change | – | – | significant (**P<0.001) Ca^2+ flux reduction at 50 μM concentration only | significant (*P<0.05) antagonizing activity | significant (*P<0.05) antagonizing activity | – | – | – |
